Columns and labels:
Test in all cases: Test A pre-/postemergence herbicide test
morningglory = type: in vivo, Ipomoea spp.
Method in brief: (§1)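 Seeds sown in loam soil/sand blend received a preemergence directed soil spray of test chemical in non-phytotoxic solvent with surfactant; postemergence plants (2–10 cm, one- to two-leaf stage) were sprayed with the same formulation. After about 10 days in greenhouse, injury was rated visually versus untreated controls, 0 (no effect) to 100 (complete control).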

velvetleaf = type: in vivo, Abutilon theophrasti
Method in brief: as §1

crabgrass, large = type: in vivo, Digitaria sanguinalis
Method in brief: as §1

[1] = Postemergence, 1000 g ai/ha, 0 to 100 scale (0 no effect, 100 complete control)
[2] = Preemergence, 1000 g ai/ha, visual rating on 0 to 100 scale (0 no effect, 100 complete control), approx. 10 days
[3] = Postemergence, 125 g ai/ha, 0 to 100 scale, 0 no effect, 100 complete control
[4] = Postemergence, 500 g ai/ha, 0 to 100 scale (0 no effect, 100 complete control)
[5] = Preemergence, 125 g ai/ha, visual rating on 0 to 100 scale (0 no effect, 100 complete control)
[6] = preemergence, 500 g ai/ha, 0 to 100 scale
[7] = Postemergence, 125 g ai/ha, 0 to 100 scale, 0 is no effect, 100 is complete control
[8] = Preemergence, 125 g ai/ha, 0 to 100 scale where 0 is no effect and 100 is complete control
[9] = preemergence, 500 g ai/ha, 0 to 100 scale, 0 is no effect and 100 is complete control

| Structure (SMILES) | Plant response rating, Morningglory (morningglory; [3]) | Plant response rating, Morningglory (morningglory; [4]) | Morningglory plant response rating (morningglory; [5]) | Plant response rating, Morningglory (morningglory; [6]) | Plant response rating, Velvetleaf (velvetleaf; [3]) | Plant response rating, Velvetleaf (velvetleaf; [4]) | Velvetleaf plant response rating (velvetleaf; [5]) | Plant response rating, Velvetleaf (velvetleaf; [6]) | Plant response rating, Crabgrass, Large (crabgrass, large; [3]) | Plant response rating, Crabgrass, Large (crabgrass, large; [4]) | Crabgrass, Large plant response rating (crabgrass, large; [5]) | Plant response rating, Crabgrass, Large (crabgrass, large; [6]) | further results |
| --- | --- | --- | --- | --- | --- | --- | --- | --- | --- | --- | --- | --- | --- |
| O=C1NCC(c2cc(F)c(F)c(F)c2)C1C(=O)Nc1ccccc1C(F)(F)F (racemic) [Compound 33] | – | – | – | – | – | – | – | – | – | – | – | – | Plant response rating, Morningglory (morningglory; [1]): 20; Plant response rating, Velvetleaf (velvetleaf; [1]): 20; Plant response rating, Velvetleaf (velvetleaf; [2]): 0; Plant response rating, Crabgrass, Large (crabgrass, large; [1]): 90; Plant response rating, Crabgrass, Large (crabgrass, large; [2]): 90 |
| Cc1ccccc1NC(=O)C1C(=O)NCC1c1cc(F)c(F)c(F)c1 (racemic) [Compound 35] | – | – | – | – | – | – | – | – | – | – | – | – | Plant response rating, Morningglory (morningglory; [1]): 0; Plant response rating, Morningglory (morningglory; [2]): 0; Plant response rating, Velvetleaf (velvetleaf; [1]): 0; Plant response rating, Velvetleaf (velvetleaf; [2]): 0; Plant response rating, Crabgrass, Large (crabgrass, large; [1]): 90; Plant response rating, Crabgrass, Large (crabgrass, large; [2]): 90 |
| O=C1NCC(c2ccc(F)c(C(F)(F)F)c2)C1C(=O)Nc1ccccc1C(F)(F)F (racemic) [Compound 78] | 0 | 0 | 0 | 0 | 20 | 60 | 0 | 30 | 70 | 80 | 90 | 90 | – |
| O=C1NCC(c2ccc(C(F)(F)F)c(F)c2)C1C(=O)Nc1ccccc1F (racemic) [Compound 246] | – | 0 | – | – | – | 0 | – | – | – | 60 | – | – | Plant response rating, Morningglory (morningglory; [7]): 0; Plant response rating, Morningglory (morningglory; [8]): 0; Plant response rating, Morningglory (morningglory; [9]): 0; Plant response rating, Velvetleaf (velvetleaf; [7]): 0; Plant response rating, Velvetleaf (velvetleaf; [8]): 0; Plant response rating, Velvetleaf (velvetleaf; [9]): 0; Plant response rating, Crabgrass, Large (crabgrass, large; [7]): 50; Plant response rating, Crabgrass, Large (crabgrass, large; [8]): 90; Plant response rating, Crabgrass, Large (crabgrass, large; [9]): 90 |
| O=C1NCC(c2ccc(C(F)(F)F)nc2)C1C(=O)Nc1ccccc1F (racemic) [Compound 262] | – | 0 | – | – | – | – | – | – | – | 80 | – | – | Plant response rating, Morningglory (morningglory; [7]): 0; Plant response rating, Morningglory (morningglory; [8]): 0; Plant response rating, Morningglory (morningglory; [9]): 0; Plant response rating, Velvetleaf (velvetleaf; [8]): 0; Plant response rating, Velvetleaf (velvetleaf; [9]): 0; Plant response rating, Crabgrass, Large (crabgrass, large; [7]): 70; Plant response rating, Crabgrass, Large (crabgrass, large; [8]): 90; Plant response rating, Crabgrass, Large (crabgrass, large; [9]): 90 |
| O=C1NCC(c2ccc(Cl)c(F)c2)C1C(=O)Nc1ccccc1F (stereo not drawn) [Compound 53] | 0 | 0 | 0 | 0 | 0 | 0 | 0 | 0 | 80 | 80 | 90 | 90 | – |
| O=C1NCC(c2ccc(F)c(Cl)c2)C1C(=O)Nc1cccc(F)c1F (stereo not drawn) [Compound 59] | 0 | 0 | 0 | 0 | 0 | 0 | 0 | 0 | 70 | 90 | 90 | 90 | – |
| O=C1NCC(c2ccc3c(c2)OC(F)(F)O3)C1C(=O)Nc1cccc(F)c1F (stereo not drawn) [Compound 62] | 0 | 0 | 0 | 0 | 0 | 0 | 0 | 0 | 80 | 90 | 90 | 90 | – |
| O=C1NCC(c2cccc(Br)c2)C1C(=O)Nc1cccc(F)c1F (stereo not drawn) [Compound 64] | 0 | 0 | 0 | 0 | 0 | 30 | 0 | 0 | 80 | 80 | 80 | 90 | – |
| O=C1NCC(c2cccc(Br)c2)C1C(=O)Nc1ccccc1F (stereo not drawn) [Compound 66] | 0 | 0 | 0 | 0 | 0 | 0 | 0 | 0 | 80 | 80 | 80 | 90 | – |
| O=C1NCC(c2cccc(OC(F)(F)F)c2)C1C(=O)Nc1cccc(F)c1F (stereo not drawn) [Compound 68] | 0 | 0 | 0 | 0 | 20 | 20 | 0 | 0 | 90 | 90 | 90 | 90 | – |
| O=C1NCC(c2cccc(C(F)(F)F)c2)C1C(=O)Nc1cccc(F)c1F (stereo not drawn) [Compound 241] | – | 30 | – | – | – | 20 | – | – | – | 80 | – | – | Plant response rating, Morningglory (morningglory; [7]): 20; Plant response rating, Morningglory (morningglory; [8]): 0; Plant response rating, Morningglory (morningglory; [9]): 0; Plant response rating, Velvetleaf (velvetleaf; [7]): 0; Plant response rating, Velvetleaf (velvetleaf; [8]): 0; Plant response rating, Velvetleaf (velvetleaf; [9]): 0; Plant response rating, Crabgrass, Large (crabgrass, large; [7]): 70; Plant response rating, Crabgrass, Large (crabgrass, large; [8]): 90; Plant response rating, Crabgrass, Large (crabgrass, large; [9]): 90 |
